One assay relates to PC3. In words: Cytotoxicity propidium iodide assay, PC3. The format is cell-based, human. The conditions noted are these: Homo sapiens, PC-3; for inhibition at 1 µM: PC3, 1 μM, 48 hours, read-out: % Inhibition at 1 μM, C2a. Here is the method:
(§1) The assay was designed as in the reference, Anticancer Drugs, 2002, 13, 1-8, the disclosure of which is incorporated herein by reference for the teaching of the assay.
(§2) Cells from cell lines (ATCC) as mentioned in the table given below were seeded at a density of 3000 cells/well in a white opaque 96-well plate. Following incubation at 37° C./5% CO2 for a period of 18-24 hours, the cells were treated with various concentrations (stock solution was prepared in DMSO and subsequent dilutions were made in media as per ATCC guidelines) of the compounds of the present invention for a period of 48 hours. At the end of treatment, the culture medium was discarded, the cells were washed with 1×PBS and 200 μL of […] propidium iodide was added to each well. The plates were frozen at […] overnight. For analysis, the plates were warmed to RT, allowed to thaw and were read in PoleStar fluorimeter with the fluorescence setting. The percentage of viable cells in the non-treated set of wells was considered to be 100 and the percentage viability following treatment was calculated accordingly. IC50 values were calculated from graphs plotted using these percentages. IC50 values for certain compounds of present invention are depicted in Table 1 and % Inhibition of certain compounds of present invention are depicted in Table 2.

A further assay has as its system A2780. The experiment in a line: Cytotoxicity propidium iodide assay, A2780. In kind it is cell-based. To be noted: Homo sapiens; for inhibition at 1 µM: A2780, 1 μM, 48 hours, read-out: % Inhibition at 1 μM, C1a. Here is the method:
as §1, §2

What is called inhibition is the share of the control response that was lost under treatment. Regarding `CC(C#N)n1c(=O)n(-c2ccc(C#N)nc2)c2c3cc(-c4cccnc4)ccc3ncc21` (stereo not shown) [Example 43, 5-(3-(1-Cyanoethyl)-2-oxo-8-(pyridin-3-yl)-2,3-dihydro-1H-imidazo[4,5-c]quinolin-1-yl)picolinonitrile], the inhibition at 1 µM in the assay with PC3 stood at 13%; in the assay with A2780, 8%.

`N#CCn1c(=O)n(-c2ccc(C#N)nc2)c2c3cc(-c4cccnc4)ccc3ncc21` [Example 42, 5-(3-(Cyanomethyl)-2-oxo-8-(pyridin-3-yl)-2,3-dihydro-1H-imidazo[4,5-c]quinolin-1-yl)picolinonitrile]: the inhibition at 1 µM in the assay with PC3 and in the assay with A2780 was 60 to 80% each time.

Regarding `COc1ccc(-n2c(=O)n(C)c3cnc4ccc(-c5cncc(C(F)(F)F)c5)cc4c32)c(C)n1` [Example 39, 1-(6-Methoxy-2-methylpyridin-3-yl)-3-methyl-8-(5-(trifluoromethyl)pyridin-3-yl)-1H-imidazo[4,5-c]quinolin-2(3H)-one], the inhibition at 1 µM with PC3 was 68.8%; with A2780, 83.4%.

The term IC50 denotes the concentration needed to halve the response being measured. For the compound `Cn1c(=O)n(-c2ccc(C(F)(F)F)nc2)c2c3cc(-c4cccnc4)ccc3ncc21` [Example 53, 3-Methyl-8-(pyridin-3-yl)-1-(6-(trifluoromethyl)pyridin-3-yl)-1H-imidazo[4,5-c]quinolin-2(3H)-one], the IC50 with PC3 (PC3 (prostate), 48 hours treatment, read-out: IC50 Values in μM, C2a) is 0.75 µM; with A2780 (A2780 (ovarian), 48 hours treatment, read-out: IC50 Values in μM, C1a), 0.55 µM.

Take `COc1ccc(-n2c(=O)n(CC#N)c3cnc4ccc(-c5cccnc5)cc4c32)cn1` [Example 21, 2-(1-(6-Methoxypyridin-3-yl)-2-oxo-8-(pyridin-3-yl)-1H-imidazo[4,5-c]quinolin-3(2H)-yl)acetonitrile]: the inhibition at 1 µM with PC3 is 27%; with A2780, 38%.

Take `CCOc1ccc(-n2c(=O)n(C)c3cnc4ccc(-c5cnc(N)c(C(F)(F)F)c5)cc4c32)cn1` [Example 30, 8-(6-Amino-5-(trifluoromethyl)pyridin-3-yl)-1-(6-ethoxypyridin-3-yl)-3-methyl-1H-imidazo[4,5-c]quinolin-2(3H)-one]: the values for the inhibition at 1 µM with PC3 and in the assay on A2780 were 71% and 94%, respectively.

With `COc1ccc(-n2c(=O)n(CC#N)c3cnc4ccc(-c5ccc(C(F)(F)F)nc5)cc4c32)c(C)n1` [Example 37, 2-(1-(6-Methoxy-2-methylpyridin-3-yl)-2-oxo-8-(6-(trifluoromethyl)pyridin-3-yl)-1H-imidazo[4,5-c]quinolin-3(2H)-yl)acetonitrile], the figures for the inhibition at 1 µM in the assay on PC3 and with A2780 were 49.5% and 70%, respectively.

Turning to `COc1ccc(-n2c(=O)n(C)c3cnc4ccc(-c5cnc6ccccc6c5)cc4c32)c(C)n1` [Example 41, 1-(6-Methoxy-2-methylpyridin-3-yl)-3-methyl-8-(quinolin-3-yl)-1H-imidazo[4,5-c]quinolin-2(3H)-one], the inhibition at 1 µM is 68% in the assay with PC3 and 80% in the assay on A2780.

In the case of `COc1ccc(-n2c(=O)n(C)c3cnc4ccc(-c5ccc(N(C)C)nc5)cc4c32)cn1` [Example 25, 8-(6-(Dimethylamino)pyridin-3-yl)-1-(6-methoxypyridin-3-yl)-3-methyl-1H-imidazo[4,5-c] quinolin-2(3H)-one], the figures for the inhibition at 1 µM in the assay on PC3 and in the assay with A2780 were 69% and 83.4%, respectively.

For the compound `Cn1c(=O)n(-c2ccc(C(C)(C)C#N)nc2)c2c3cc(-c4cncc(C(F)(F)F)c4)ccc3ncc21` [Example 4, 2-Methyl-2-(5-(3-methyl-2-oxo-8-(5-(trifluoromethyl)pyridin-3-yl)-2,3-dihydro-1H-imidazo[4,5-c]quinolin-1-yl)pyridin-2-yl)propanenitrile], the inhibition at 1 µM is 72.6% with PC3 and 89.2% in the assay on A2780.

Regarding `CC(C#N)n1c(=O)n(-c2ccc(C#N)nc2)c2c3cc(-c4cnc5ccccc5c4)ccc3ncc21` (stereo not shown) [Example 52, 5-(3-(1-Cyanoethyl)-2-oxo-8-(quinolin-3-yl)-2,3-dihydro-1H-imidazo[4,5-c]quinolin-1-yl)picolinonitrile], the inhibition at 1 µM was 12% in the assay with PC3 and 36% in the assay with A2780.

These data come from patent US20130310374A1, “Substituted Imidazoquinoline Derivatives” (PIRAMAL ENTERPRISES LIMITED`, priority 2010, published 2013).
